Blank lines part the entries; values can stand above or below the compound they belong to. Active and inactive are the calls of the source. No cut-off for these calls is given here.
What was measured:
LNCaP C4-2B = experiment: cells; conditions: Homo sapiens, 96 h
Description: Antiproliferative activity against human LNCaP C4-2B cells assessed as inhibition of cell proliferation incubated for 96 hrs by CellTiter-Glo assay

CWR22R [1] = experiment: cells; conditions: Homo sapiens, 22Rv1, 96 h
Description: Antiproliferative activity against human 22Rv1 cells assessed as inhibition of cell proliferation incubated for 96 hrs by CellTiter-Glo assay

LNCaP = experiment: cells; conditions: Homo sapiens, 96 h
Description: Antiproliferative activity against human LNCaP cells assessed as inhibition of cell proliferation incubated for 96 hrs by CellTiter-Glo assay

CWR22R [2] = experiment: Downregulation of GSPT1 protein level in human 22Rv1 cells at 500 nM incubated for 6 hrs by mass spectrometry-based label-free quantitative proteomics analysis; format: functional, cell-based
CWR22R [3] = experiment: Downregulation of AR-FL mRNA level in human 22Rv1 cells at 500 nM incubated for 12 hrs by qRT-PCR analysis; format: functional, cell-based
CWR22R [4] = experiment: Antiproliferative activity against human 22Rv1 cells assessed as inhibition of cell proliferation by CellTiter-Glo assay
CWR22R [5] = experiment: Downregulation of GSPT1 protein level in human 22Rv1 cells at 300 nM by Immunoblotting analysis; format: functional, cell-based; conditions: time 1-6 hrs
CWR22R [6] = experiment: Downregulation of BCL2 level in human 22Rv1 cells at 12 to 1000 nM incubated for 12 hrs by Immunoblotting analysis; format: functional, cell-based; conditions: dose 12-1000 nM
[7] = target: Protein cereblon/Bromodomain-containing protein 4 (Homo sapiens) (UniProt O60885+Q96SW2); experiment: Molecular glue degradation activity at CRBN/BRD4 in human 22Rv1 cells at 12 to 1000 nM incubated for 6 hrs by Immunoblotting analysis; format: cell-based; conditions: dose 12-1000 nM
Protein cereblon/Bromodomain-containing protein 4 (Homo sapiens), sequence (Q96SW2 whole entry, looked up, other chains not shown): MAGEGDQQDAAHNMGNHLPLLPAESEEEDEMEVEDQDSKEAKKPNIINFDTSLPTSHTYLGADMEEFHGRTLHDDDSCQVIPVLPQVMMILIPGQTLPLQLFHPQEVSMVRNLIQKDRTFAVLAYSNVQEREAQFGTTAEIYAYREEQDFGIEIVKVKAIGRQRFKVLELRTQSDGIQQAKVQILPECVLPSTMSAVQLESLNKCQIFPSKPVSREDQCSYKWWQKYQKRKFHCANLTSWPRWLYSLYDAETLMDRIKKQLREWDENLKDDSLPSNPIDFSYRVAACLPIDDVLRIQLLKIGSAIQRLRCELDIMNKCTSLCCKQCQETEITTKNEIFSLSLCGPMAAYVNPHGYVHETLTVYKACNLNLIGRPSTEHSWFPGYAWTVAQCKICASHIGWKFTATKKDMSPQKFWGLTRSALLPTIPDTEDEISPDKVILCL

CWR22R [8] = experiment: Inhibition of colony formation in human 22Rv1 cells at 6.25 to 25 nM incubated for 14 days by crystal violet staining based assay; format: functional, cell-based; conditions: dose 6.25-25 nM, time 14.0 day
CWR22R [9] = experiment: Downregulation of AR-V7 mRNA level in human 22Rv1 cells at 500 nM incubated for 12 hrs by qRT-PCR analysis; format: functional, cell-based
CWR22R [10] = experiment: Downregulation of GSPT1 protein level in human 22Rv1 cells incubated for 6 hrs by Immunoblotting analysis; format: functional, cell-based; conditions: dose 12-1000 nM
CWR22R [11] = experiment: Downregulation of AR-FL protein level in human 22Rv1 cells at 12 to 1000 nM incubated for 12 hrs by Immunoblotting analysis; format: functional, cell-based; conditions: dose 12-1000 nM
CWR22R [12] = experiment: Antiproliferative activity against siCRBN knockdown human 22Rv1 cells assessed as inhibition of cell growth by Cell-titer Glo luminescent assay; format: functional, cell-based
CWR22R [13] = experiment: Downregulation of CDK2 expression in human 22Rv1 cells incubated for 12 hrs by qRT-PCR analysis; format: functional, cell-based
CWR22R [14] = experiment: Downregulation of AR-V7 protein level in human 22Rv1 cells at 12 to 1000 nM incubated for 12 hrs by Immunoblotting analysis; format: functional, cell-based; conditions: dose 12-1000 nM
[15] = Downregulation of GSPT1 protein level in human 22Rv1 cells at 12 to 1000 nM incubated for 6 hrs by Immunoblotting analysis; conditions: 22Rv1, 6 h
[16] = target: Eukaryotic peptide chain release factor GTP-binding subunit ERF3A (Homo sapiens) (UniProt P15170); experiment: Binding affinity to GSPT1 (unknown origin) by BLI assay
Eukaryotic peptide chain release factor GTP-binding subunit ERF3A (Homo sapiens), sequence (P15170 whole entry): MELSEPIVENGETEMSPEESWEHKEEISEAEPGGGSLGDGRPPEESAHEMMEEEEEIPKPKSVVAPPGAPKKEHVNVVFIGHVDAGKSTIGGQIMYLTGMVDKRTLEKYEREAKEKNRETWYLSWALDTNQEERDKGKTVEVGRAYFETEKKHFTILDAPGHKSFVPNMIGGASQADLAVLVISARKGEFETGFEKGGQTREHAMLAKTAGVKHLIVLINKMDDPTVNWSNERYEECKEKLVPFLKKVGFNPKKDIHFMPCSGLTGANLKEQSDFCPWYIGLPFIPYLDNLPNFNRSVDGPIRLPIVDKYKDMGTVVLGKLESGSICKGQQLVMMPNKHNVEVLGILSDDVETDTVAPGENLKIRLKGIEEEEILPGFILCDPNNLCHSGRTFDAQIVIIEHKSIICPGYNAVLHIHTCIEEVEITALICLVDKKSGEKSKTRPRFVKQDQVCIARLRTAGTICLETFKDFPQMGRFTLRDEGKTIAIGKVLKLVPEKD

CWR22R [17] = experiment: Downregulation of HSP90B1 expression in human 22Rv1 cells incubated for 12 hrs by qRT-PCR analysis; format: functional, cell-based
[18] = target: Eukaryotic peptide chain release factor GTP-binding subunit ERF3A (Homo sapiens) (UniProt P15170); conditions: dose 200.0 µM, time 45.0 min
CWR22R [19] = experiment: Downregulation of PSA protein level in human 22Rv1 cells at 12 to 1000 nM incubated for 12 hrs by Immunoblotting analysis; format: functional, cell-based; conditions: dose 12-1000 nM
CWR22R [20] = experiment: Downregulation of MCL-1 level in human 22Rv1 cells at 12 to 1000 nM incubated for 12 hrs by Immunoblotting analysis; format: functional, cell-based; conditions: dose 12-1000 nM
[21] = Toxicity in wild-type NOD-SCID mouse assessed as tolerability administered intraperitoneally once daily for 21 days; conditions: in vivo, ip, 504 h, time 21 day
CWR22R [22] = experiment: Downregulation of PSA mRNA level in human 22Rv1 cells at 500 nM incubated for 12 hrs by qRT-PCR analysis; format: functional, cell-based
CWR22R [23] = experiment: Downregulation of BRD2 protein level in human 22Rv1 cells at 500 nM incubated for 6 hrs by mass spectrometry-based label-free quantitative proteomics analysis; format: functional, cell-based
CWR22R [24] = experiment: Downregulation of EGFR expression in human 22Rv1 cells incubated for 12 hrs by qRT-PCR analysis; format: functional, cell-based
CWR22R [25] = experiment: Antitumor activity against human 22Rv1 cells xenografted in NOD-SCID mouse assessed as tumor growth inhibition at 10 mg/kg, ip administered once daily for 21 days relative to control; format: functional; conditions: 22Rv1, 504 h, time 21 day, read-out: TGI
CWR22R [26] = experiment: Downregulation of TMPRSS2 expression in human 22Rv1 cells incubated for 12 hrs by qRT-PCR analysis; format: functional, cell-based
CWR22R [27] = experiment: Downregulation of c-MYC mRNA level in human 22Rv1 cells at 500 nM incubated for 12 hrs by qRT-PCR analysis; format: functional, cell-based
[28] = target: Bromodomain-containing protein 4 (Homo sapiens, UniProt O60885); experiment: Binding affinity to BRD4 BD1 (unknown origin) assessed as dissociation constant by BLI assay
[29] = Binding affinity to […]/DDB1/N-terminal H6-Avi-tagged CRBN TBD (unknown origin) expressed in BL21 (DE3) cells assessed as dissociation constant by BLI assay; parameters: species or system Homo sapiens
[30] = target: Protein cereblon/Eukaryotic peptide chain release factor GTP-binding subunit ERF3A (Homo sapiens) (UniProt Q96SW2+P15170); experiment: Protac activity at CRBN/GSPT1 in human 22Rv1 cells assessed as GSPT1 degradation at 12 to 1000 nM incubated for 6 hrs by Western blotting analysis; format: cell-based; conditions: dose 12-1000 nM
Protein cereblon/Eukaryotic peptide chain release factor GTP-binding subunit ERF3A (Homo sapiens), sequence (P15170 whole entry, looked up): as the sequence (P15170 whole entry) above
Protein cereblon/Eukaryotic peptide chain release factor GTP-binding subunit ERF3A (Homo sapiens), sequence (Q96SW2 whole entry, looked up): as the sequence (Q96SW2 whole entry, looked up, other chains not shown) above

CWR22R [31] = experiment: Downregulation of BRD4 protein level in human 22Rv1 cells at 500 nM incubated for 6 hrs by mass spectrometry-based label-free quantitative proteomics analysis; format: functional, cell-based
CWR22R [32] = experiment: Downregulation of E2F3 expression in human 22Rv1 cells incubated for 12 hrs by qRT-PCR analysis; format: functional, cell-based
CWR22R [33] = experiment: Downregulation of BCL-XL level in human 22Rv1 cells at 12 to 1000 nM incubated for 12 hrs by Immunoblotting analysis; format: functional, cell-based; conditions: dose 12-1000 nM
CWR22R [34] = experiment: Reduction of GSPT1 in siCRBN transfected human 22Rv1 cells at 500 nM incubated for 6 hrs by Western blotting analysis; format: functional, cell-based
CWR22R [35] = experiment: Antitumor activity against human 22Rv1 cells xenografted in NOD-SCID mouse assessed as tumor growth inhibition at 20 mg/kg, ip administered once daily for 21 days relative to control; format: functional; conditions: 22Rv1, 504 h, time 21 day, read-out: TGI
CWR22R [36] = experiment: Downregulation of c-MYC protein level in human 22Rv1 cells at 12 to 1000 nM incubated for 12 hrs by Immunoblotting analysis; format: functional, cell-based; conditions: dose 12-1000 nM
CWR22R [37] = experiment: Downregulation of BCL2 expression in human 22Rv1 cells incubated for 12 hrs by qRT-PCR analysis; format: functional, cell-based
CWR22R [38] = experiment: Downregulation of GSPT1 mRNA level in human 22Rv1 cells at 100 to 300 nM incubated for 12 hrs by qRT-PCR analysis; format: functional, cell-based; conditions: dose 100-300 nM

Structure (SMILES): COc1ccc(Br)cc1S(=O)(=O)Nc1cc2c(C)noc2cc1OCC(=O)NCCCCNC(=O)COc1cccc2c1C(=O)N(C1CCC(=O)NC1=O)C2=O (configuration not stated)
IC50 (LNCaP C4-2B): > 10 µM
IC50 (CWR22R [1]): > 10 µM
IC50 (LNCaP): > 10 µM

Structure (SMILES): COc1cc2onc(C)c2cc1NS(=O)(=O)c1cc(Br)ccc1OC
IC50 (LNCaP C4-2B): 1.8 µM
IC50 (CWR22R [1]): 1.61 µM
IC50 (LNCaP): 2.52 µM

Structure (SMILES): COc1ccc(Br)cc1S(=O)(=O)Nc1cc2c(C)noc2cc1OCC(=O)NCCCCCNC(=O)COc1cccc2c1C(=O)N(C1CCC(=O)NC1=O)C2=O (configuration not stated)
IC50 (LNCaP C4-2B): > 10 µM
IC50 (CWR22R [1]): > 10 µM
IC50 (LNCaP): > 10 µM

Structure (SMILES): COc1ccc(Br)cc1S(=O)(=O)Nc1cc2c(C)noc2cc1OCC(=O)NCCNC(=O)COc1cccc2c1C(=O)N(C1CCC(=O)NC1=O)C2=O (configuration not stated)
IC50 (LNCaP C4-2B): > 10 µM
IC50 (CWR22R [1]): > 10 µM
IC50 (LNCaP): > 10 µM

Structure (SMILES): Nc1cccc2c1C(=O)N(C1CCC(=O)NC1=O)C2=O (configuration not stated) [POMALIDOMIDE]
IC50 (LNCaP C4-2B): > 10 µM
IC50 (CWR22R [1]): > 10 µM
IC50 (LNCaP): > 10 µM

Continued, in another order:

IC50 (LNCaP C4-2B): > 10 µM
IC50 (CWR22R [1]): > 10 µM
IC50 (LNCaP): > 10 µM
Structure (SMILES): COc1ccc(Br)cc1S(=O)(=O)Nc1cc2c(C)noc2cc1OCC(=O)NCCNc1ccc2c(c1)C(=O)N(C1CCC(=O)NC1=O)C2=O (configuration not stated)

IC50 (LNCaP C4-2B): > 10 µM
IC50 (CWR22R [1]): > 10 µM
IC50 (LNCaP): > 10 µM
Structure (SMILES): COc1ccc(Br)cc1S(=O)(=O)Nc1cc2c(C)noc2cc1OCC(=O)NCCCCCNc1ccc2c(c1)C(=O)N(C1CCC(=O)NC1=O)C2=O (configuration not stated)

Activity [7]: inactive
DC50 [15]: 0.019 µM
Activity [16]: inactive
IC50 (LNCaP C4-2B): 0.374 µM
deltaTm [18]: inactive
IC50 (CWR22R [1]): 0.007 µM
Kd [28]: 38 µM
Activity [30]: Active
IC50 (LNCaP): 0.034 µM
Structure (SMILES): COc1ccc(Br)cc1S(=O)(=O)Nc1cc2c(C)noc2cc1OCC(=O)NCCCCCNc1cccc2c1C(=O)N(C1CCC(=O)NC1=O)C2=O (configuration not stated)
Activity (CWR22R [2]): Active
Activity (CWR22R [3]): Active
IC50 (CWR22R [4]): 0.007 µM
Activity (CWR22R [5]): Time-dependent-effect
Activity (CWR22R [6]): Active
inhibition (CWR22R [8]): Active
Activity (CWR22R [9]): Active
Activity (CWR22R [10]): Dose-dependent-effect
Activity (CWR22R [11]): Active
Activity (CWR22R [12]): inactive
Activity (CWR22R [13]): Active
Activity (CWR22R [14]): Active
Activity (CWR22R [17]): Active
Activity (CWR22R [19]): Active
Activity (CWR22R [20]): Active
Activity [21]: Non-toxic
Activity (CWR22R [22]): Active
Activity (CWR22R [23]): inactive
Activity (CWR22R [24]): Active
inhibition in vivo at 10 mg/kg (CWR22R [25]): 44%
Activity (CWR22R [26]): Active
Activity (CWR22R [27]): Active
Kd [29]: 0.93 µM
Activity (CWR22R [31]): inactive
Activity (CWR22R [32]): Active
Activity (CWR22R [33]): Active
Activity (CWR22R [34]): inactive
inhibition in vivo at 20 mg/kg (CWR22R [35]): 55%
Activity (CWR22R [36]): Active
Activity (CWR22R [37]): Active
Activity (CWR22R [38]): inactive

IC50 (LNCaP C4-2B): > 10 µM
IC50 (CWR22R [1]): 1.38 µM
IC50 (LNCaP): > 10 µM
Structure (SMILES): COc1ccc(Br)cc1S(=O)(=O)Nc1cc2c(C)noc2cc1OCC(=O)NCCCNc1ccc2c(c1)C(=O)N(C1CCC(=O)NC1=O)C2=O (configuration not stated)

IC50 (LNCaP C4-2B): > 10 µM
IC50 (CWR22R [1]): > 10 µM
IC50 (LNCaP): > 10 µM
Structure (SMILES): COc1ccc(Br)cc1S(=O)(=O)Nc1cc2c(C)noc2cc1OCC(=O)NCCNc1cccc2c1C(=O)N(C1CCC(=O)NC1=O)C2=O (configuration not stated)
